In ChEMBL document CHEMBL6109105, “Design, synthesis and antibacterial evaluation of oxazolidinone derivatives containing N-methylglycyl or quaternary ammonium salts” (Bioorg Med Chem, 2025):
Converted amounts (≈) assume the structure as drawn. The source made the active and inactive calls. The calls are words filed in the database; no cut-off is given here.

Columns and labels:
[1] = tested on: Cell membrane; experiment: Induction of cell membrane damage in Enterococcus faecalis assessed as nucleic acid leakage at 32 times of MIC incubated for 2 hrs by fluorescence spectrophotometric analysis; type: subcellular
[2] = tested on: Enterococcus faecalis; experiment: Antibacterial activity against Enterococcus faecalis ATCC 29212 assessed as inhibition of bacterial growth incubated for 16 to 18 hrs by microbroth dilution method; type: functional; settings: time 16-18 hrs, read-out: MIC100
[3] = Cytotoxicity against human HeLa cells assessed as cell viability at 64 microg/ml incubated for 24 hrs by CCK8 assay relative to control; type: toxicity, cell-based; settings: at 64 µg/mL, read-out: Activity
[4] = Selectivity ratio of MIC for antibacterial activity against Enterococcus faecalis assessed as inhibition of bacterial growth measured after 3 hrs in presence of 50% plasma to MIC for antibacterial activity against Enterococcus faecalis assessed as inhibition of bacterial growth assessed as inhibition of bacterial growth measured after 16 to 18 hrs; type: functional
[5] = tested on: Enterococcus faecalis; experiment: Antibacterial activity against Enterococcus faecalis assessed as inhibition of bacterial growth incubated for 16 to 18 hrs in presence of 50% MHB by dilution method; type: functional; settings: time 16-18 hrs
[6] = tested on: Enterococcus faecalis; experiment: Induction of ROS accumulation in Enterococcus faecalis assessed as increase in fluorescence intensity at 8 times of MIC incubated for 30 mins in presence of NAC by DCFH-DA staining based microplate reader analysis; type: functional, organism-based
[7] = tested on: Cell membrane; experiment: Induction of cell membrane damage in Enterococcus faecalis assessed as nucleic acid leakage at 8 times of MIC incubated for 2 hrs by fluorescence spectrophotometric analysis; type: subcellular
[8] = tested on: Enterococcus faecalis; experiment: Antibacterial activity against Enterococcus faecalis assessed as inhibition of bacterial growth incubated for 3 hrs in presence of 50% MHB by dilution method; type: functional, organism-based
[9] = Hemolytic activity in sheep RBC assessed as hemolysis at 1280 microg/ml incubated for 1 hrs by microplate reader analysis relative to control; type: toxicity, cell-based, Ovis aries, Erythrocyte; settings: sheep red blood cells, dose 1280 µg/ml, read-out: Activity
[10] = tested on: Enterococcus faecalis; experiment: Antipersister-activity against in Enterococcus faecalis assessed as log reduction in persistent cells at 32 times of MIC preincubated with 100 times of MIC of rifampicin for 24 hrs followed by compound addition and measured after 8 hrs by drop plate counting method; type: functional
[11] = tested on: Cell membrane; experiment: Induction of cytoplasmic membrane depolarization in Enterococcus faecalis assessed as increase in fluorescence intensity by DiSC35 dye based microplate reader analysis
[12] = tested on: Enterococcus faecalis; experiment: Disruption of preformed biofilm in Enterococcus faecalis assessed as bacterial survival rate at 32 times of MIC measured after 24 hrs relative to control; type: functional
[13] = tested on: Stenotrophomonas maltophilia; experiment: Antibacterial activity against Stenotrophomonas maltophilia ATCC 17808 assessed as inhibition of bacterial growth incubated for 16 to 18 hrs by microbroth dilution method; type: functional; settings: time 16-18 hrs, read-out: MIC100
[14] = tested on: Enterococcus faecalis; experiment: Induction of ROS-dependent oxidative stress in Enterococcus faecalis assessed as decrease in GSH activity at 32 microg/ml (reference value: 1.34 %); type: functional; design: scale not given: the % may be the effect or the level left; settings: dose 32 µg/ml
[15] = tested on: Enterococcus faecalis; experiment: Bactericidal activity against Enterococcus faecalis assessed as reduction in bacterial count at 4 times of MIC measured within 10 hrs by time-kill kinetics analysis; type: functional
[16] = tested on: Cell membrane; experiment: Induction of cell membrane damage in Enterococcus faecalis assessed as nucleic acid leakage at 16 times of MIC incubated for 2 hrs by fluorescence spectrophotometric analysis; type: subcellular
[17] = tested on: Enterococcus faecalis; experiment: Disruption of preformed biofilm in Enterococcus faecalis assessed as bacterial survival rate at 16 times of MIC measured after 24 hrs relative to control; type: functional
[18] = tested on: Enterococcus faecalis; experiment: Antibacterial activity against Enterococcus faecalis assessed as post-antibiotic effect at 8 times of MIC measured up to 8 hrs; type: functional
[19] = tested on: Enterococcus faecalis; experiment: Antibacterial activity against Enterococcus faecalis assessed as inhibition of bacterial growth incubated for 16 to 18 hrs in presence of 50% plasma by dilution method; type: functional; settings: time 16-18 hrs
[20] = tested on: Enterococcus faecalis; experiment: Antibacterial activity against Enterococcus faecalis assessed as inhibition of bacterial growth at 0.5 times of MIC incubated for 15 days by bacterial resistance development assay; type: functional, organism-based; settings: time 15.0 day
[21] = tested on: Escherichia coli; experiment: Antibacterial activity against Escherichia coli ATCC 25922 assessed as inhibition of bacterial growth incubated for 16 to 18 hrs by microbroth dilution method; type: functional; settings: time 16-18 hrs, read-out: MIC100
[22] = tested on: Enterococcus faecalis; experiment: Post-antibiotic affect in Enterococcus faecalis assessed as reduction in growth rate at 16 times of MIC measured after 1 hrs; type: functional, organism-based
[23] = tested on: Enterococcus faecalis; experiment: Antibacterial activity against Enterococcus faecalis assessed as post-antibiotic effect at 16 times of MIC measured up to 8 hrs; type: functional
[24] = tested on: HeLa; experiment: Cytotoxicity against human HeLa cells assessed as increase in fluorescence intensity at 1 to 16 microg/ml by vesicle leakage assay; type: toxicity, cell-based; settings: dose 1-16 µg/ml
[25] = tested on: Staphylococcus aureus; experiment: Antibacterial activity against Staphylococcus aureus ATCC 29213 assessed as inhibition of bacterial growth incubated for 16 to 18 hrs by microbroth dilution method; type: functional; settings: time 16-18 hrs, read-out: MIC100
[26] = Hemolytic activity in sheep RBC assessed as hemolysis incubated for 1 hrs by microplate reader analysis; type: toxicity, cell-based, Ovis aries, Erythrocyte; settings: sheep red blood cells
[27] = tested on: Enterococcus faecalis; experiment: Antibacterial activity against Enterococcus faecalis assessed as inhibition of bacterial growth incubated for 16 to 18 hrs in presence of 50% serum by dilution method; type: functional; settings: time 16-18 hrs
[28] = tested on: Enterococcus faecalis; experiment: Drug resistance, ratio of MIC for Enterococcus faecalis measured after 5 days to MIC for Enterococcus faecalis measured after 16 to 18 hrs; type: functional
[29] = tested on: Cell membrane; experiment: Induction of cytoplasmic membrane permeability in Enterococcus faecalis assessed as increase in fluorescence intensity at 8 times of MIC by PI staining based analysis
[30] = tested on: Enterococcus faecalis; experiment: Disruption of preformed biofilm in Enterococcus faecalis assessed as reduction in bacterial density at 32 times of MIC measured after 24 hrs by SYTO 9 staining based confocal laser scanning microscopic analysis; type: functional, organism-based
[31] = tested on: Enterococcus faecalis; experiment: Induction of ROS accumulation in Enterococcus faecalis assessed as fluorescence intensity at 8 times of MIC incubated for 30 mins by DCFH-DA staining based microplate reader analysis; type: functional; settings: 0.5 h
[32] = tested on: HeLa; experiment: Cytotoxicity against human HeLa cells assessed as increase in red fluorescence at 32 microg/ml incubated for 24 hrs by calcein-AM/PI staining based fluorescence microscopic analysis; type: toxicity, cell-based; settings: dose 32 µg/ml
[33] = tested on: Enterococcus faecalis; experiment: Antibacterial activity against Enterococcus faecalis assessed as inhibition of bacterial growth incubated for 3 hrs in presence of 50% plasma by dilution method; type: functional
[34] = tested on: Enterococcus faecalis; experiment: Post-antibiotic affect in Enterococcus faecalis assessed as reduction in growth rate at 8 times of MIC measured after 1 hrs; type: functional, organism-based
[35] = tested on: Enterococcus faecalis; experiment: Drug resistance, ratio of MIC for Enterococcus faecalis measured after 15 days to MIC for Enterococcus faecalis measured after 16 to 18 hrs; type: functional

## CC(=O)NC[C@H]1CN(c2ccc(N3CCN(C(=O)CN(C)Cc4ccc([N+](=O)[O-])cc4)CC3)c(F)c2)C(=O)O1
[1]
  Activity: Active; Small Amount Of Leakage Observed
[2]
  MIC: 2 mg/L (≈ 3.69 µM)
[3]
  viability at 24 h, 64 microg/ml: 59.8%
[4]
  Selectivity ratio: 4
[5]
  MIC: 2 mg/L
[6]
  Activity: inactive
[7]
  Activity: Active; Small Amount Of Leakage Observed
[8]
  Activity: Active
[9]
  hemolysis at 1 h, 1280 microg/ml: 3.19%
[10]
  Activity: 3.71 log10CFU/ml
[11]
  Activity: inactive
[12]
  Activity: 0.04%
[13]
  MIC: > 128 mg/L
[14]
  Activity: 45.89%
[15]
  Activity: ~1 10^4CFU/ml
[16]
  Activity: Active; Small Amount Of Leakage Observed
[17]
  Activity: 0.3%
[18]
  PAE: 0.44 h
[19]
  MIC: 2 mg/L
[20]
  Activity: Active
[21]
  MIC: > 128 mg/L
[22]
  Activity: Active
[23]
  PAE: 5.13 h
[24]
  Activity: Non-toxic
[25]
  MIC: 8 mg/L (≈ 14.7 µM)
[26]
  HC50 at 1 h: > 1280 µg/mL
[27]
  MIC: 4 mg/L
[28]
  Ratio: 2
[29]
  Activity: inactive
[30]
  Activity: Active
[31]
  Flu intensity: 280 a.u.
[32]
  Activity: Non-toxic
[33]
  MIC: 8 mg/L
[34]
  Activity: Active

## CCn1cc(C(=O)O)c(=O)c2cc(F)c(N3CCNCC3)cc21 [NORFLOXACIN]
[35]
  Ratio: 4
